The record followed here is US11021475B2, “Amide-substituted heterocyclic compounds useful as modulators of IL-12, IL-23 and/or IFN alpha responses” (Bristol-Myers Squibb Company, priority 2012, dated 2021).

Read-outs that look alike come from different tables or passages of the source.

Experiment [1] deals with IFNα stimulated Kit225 T cells (STAT-dependent luciferase reporter). The experiment is described as follows: Kit225 T cell assay, IFNα-stimulated STAT-dependent luciferase reporter. Format: cell-based, human. To be noted: 200 U/mL human recombinant IFNα, 5-6 hours, read-out: IFNα Kit225 Reporter (IC50). How it is done: (§1) Kit225 T cells with a stably-integrated STAT-dependent luciferase reporter were plated in RPMI (Gibco) containing 10% heat-inactivated FBS (Gibco) and 100 U/mL PenStrep (Gibco). The cells were then stimulated with either 20 ng/mL human recombinant IL-23 or 200 U/mL human recombinant IFNα (PBL InterferonSource) for 5-6 hours. Luciferase expression was measured using the STEADY-GLO® Luciferase Assay System (Promega) according to the manufacturer's instructions. Inhibition data were calculated by comparison to no inhibitor control wells for 0% inhibition and non-stimulated control wells for 100% inhibition.

The test system of experiment [2] is IL-23 stimulated Kit225 T cells (STAT-dependent luciferase reporter). Kind of experiment: Kit225 T cell assay, IL-23-stimulated STAT-dependent luciferase reporter. Conditions: 20 ng/mL human recombinant IL-23, 5-6 hours, read-out: IL-23 Kit225 Reporter (IC50). Format: cell-based, human. How it is done:
as §1
(In general: In a reporter assay the amount or activity of a reporter protein is the signal.)

For orientation: IC50 means the concentration needed to halve the response being measured. On to `[2H]C([2H])([2H])NC(=O)c1nnc(Nc2cc(C)c(F)cn2)cc1Nc1ccccc1S(C)(=O)=O` [Example 1], for which the figures for the IC50 in experiment [1] (KIT225) and in experiment [2] (KIT225) were 20 nM and 30 nM, respectively.

For `CS(=O)(=O)c1ccccc1Nc1cc(Nc2ccc(F)cn2)nnc1C(N)=O` [Example 2], the IC50 is 50 nM in experiment [1] and 140 nM in experiment [2].

`CNC(=O)c1nnc(Nc2ccc(F)cn2)cc1Nc1ccccc1S(C)(=O)=O` [Example 3]: the results for the IC50 in experiment [1] and in experiment [2] were 60 nM and 100 nM, respectively.

Take `CNC(=O)c1nnc(Nc2ccc(F)cn2)cc1Nc1ccccc1S(C)(=O)=O` [Example 6]: the figures for the IC50 in experiment [1] and in experiment [2] were 110 nM and 190 nM, respectively.

As to `CNC(=O)c1nnc(Nc2cc(C)nc(C)n2)cc1Nc1ccccc1S(C)(=O)=O` [Example 7], the IC50 in experiment [1] was determined as 50 nM; in experiment [2], 70 nM.

As for `CNC(=O)c1nnc(Nc2cc(C)ncn2)cc1Nc1ccccc1S(C)(=O)=O` [Example 8], the IC50 in experiment [1] was 90 nM; in experiment [2] it was 130 nM.

For `CNC(=O)c1nnc(Nc2cc(F)ccn2)cc1Nc1ccccc1S(C)(=O)=O` [Example 9], the IC50 in experiment [1] worked out at 90 nM; in experiment [2], 60 nM.

As to `CNC(=O)c1nnc(Nc2cc(C#N)ccn2)cc1Nc1ccccc1S(C)(=O)=O` [Example 11], the IC50 is 60 nM in experiment [1] and 100 nM in experiment [2].

For the compound `CNC(=O)c1nnc(NC(=O)C2CC2)cc1Nc1ccccc1S(C)(=O)=O` [Example 12], the IC50 in experiment [1] amounted to 100 nM; in experiment [2], 230 nM.

With `CNC(=O)c1nnc(Nc2cc3ccccc3cn2)cc1Nc1ccccc1S(C)(=O)=O` [Example 13], the IC50 is 50 nM in experiment [1] and 20 nM in experiment [2].

Consider `CNC(=O)c1nnc(Nc2cc(C)ccn2)cc1Nc1ccccc1S(C)(=O)=O` [Example 14], for which the IC50 in experiment [1] and in experiment [2] was 10 nM each time.

Consider `CNC(=O)c1nnc(Nc2cc(C)c(F)cn2)cc1Nc1ccccc1S(C)(=O)=O` [Example 15], for which the IC50 in experiment [1] is 50 nM; in experiment [2], 40 nM.

Consider `CNC(=O)c1nnc(NC(=O)C2CC2)cc1Nc1ccccc1S(C)(=O)=O` [Example 17], for which the IC50 in experiment [1] amounted to 360 nM; in experiment [2] it was 570 nM.

`Cc1cc(Nc2cc(Nc3ccccc3S(C)(=O)=O)c(C(N)=O)nn2)ncc1F` [Example 18]: the IC50 was 30 nM in experiment [1] and 100 nM in experiment [2].

In the case of `CNC(=O)c1nnc(Nc2ccc(C)nn2)cc1Nc1ccccc1S(C)(=O)=O` [Example 19], the IC50 in experiment [1] and in experiment [2] was 90 nM each time.

In the case of `CNC(=O)c1nnc(Nc2cc(C)c(C)cn2)cc1Nc1ccccc1S(C)(=O)=O` [Example 20], the IC50 in experiment [1] and in experiment [2] was 20 nM in each case.

Regarding `CNC(=O)c1nnc(Nc2cc(C)c(C)nn2)cc1Nc1ccccc1S(C)(=O)=O` [Example 21], the IC50 was 60 nM in experiment [1] and 80 nM in experiment [2].

`CNC(=O)c1nnc(Nc2ccc(OC)cn2)cc1Nc1ccccc1S(C)(=O)=O` [Example 22]: the half-maximal inhibitory concentration (IC50) came out at 100 nM in experiment [1] and 160 nM in experiment [2].

With `CNC(=O)c1nnc(Nc2cc(C)ccn2)cc1Nc1ccccc1S(C)(=O)=O` [Example 23], the IC50 turned out to be 40 nM in experiment [1] and 100 nM in experiment [2].

Consider `CNC(=O)c1nnc(Nc2cc(C)n(C)n2)cc1Nc1ccccc1S(C)(=O)=O` [Example 24], for which the results for the IC50 in experiment [1] and in experiment [2] were 50 nM and 60 nM, respectively.

For `CNC(=O)c1nnc(Nc2cc(C#N)ccn2)cc1Nc1ccccc1S(C)(=O)=O` [Example 25], the figures for the IC50 in experiment [1] and in experiment [2] were 80 nM and 140 nM, respectively.

Consider `CNC(=O)c1nnc(Nc2cc(C)c(C#N)cn2)cc1Nc1ccccc1S(C)(=O)=O` [Example 26], for which the results for the IC50 in experiment [1] and in experiment [2] were 50 nM and 60 nM, respectively.

`CS(=O)(=O)c1ccccc1Nc1cc(Nc2ccccn2)nnc1C(N)=O` [Example 27]: the IC50 in experiment [1] was 20 nM; in experiment [2], 10 nM.

`CNC(=O)c1nnc(NC(=O)C2CC2F)cc1Nc1ccccc1S(C)(=O)=O` (centres unmarked) [Example 28]: the IC50 turned out to be 610 nM in experiment [1] and 420 nM in experiment [2].

Consider `CNC(=O)c1nnc(Nc2ccc(N3CCOCC3)cn2)cc1Nc1ccccc1S(C)(=O)=O` [Example 29], for which the IC50 in experiment [1] amounted to 80 nM; in experiment [2], 140 nM.

Take `CNC(=O)c1nnc(Nc2cccc(C)n2)cc1Nc1ccccc1S(C)(=O)=O` [Example 30]: the IC50 in experiment [1] is 10 nM; in experiment [2], 20 nM.

On to `CNC(=O)c1nnc(Nc2ccccn2)cc1Nc1ccccc1S(C)(=O)=O` [Example 31], for which the IC50 was determined as 90 nM in experiment [1] and 80 nM in experiment [2].

Consider `CNC(=O)c1nnc(Nc2ccc(C(=O)OC)cn2)cc1Nc1ccccc1S(C)(=O)=O` [Example 32], for which the IC50 in experiment [1] was determined as 50 nM; in experiment [2], 70 nM.

For the compound `CNC(=O)c1nnc(Nc2cc(C(C)=O)ccn2)cc1Nc1ccccc1S(C)(=O)=O` [Example 33], the IC50 in experiment [1] worked out at 400 nM; in experiment [2], 660 nM.

For `CNC(=O)c1nnc(Nc2cc(CO)ccn2)cc1Nc1ccccc1S(C)(=O)=O` [Example 34], the 50% inhibitory concentration (IC50) was determined as 170 nM in experiment [1] and 190 nM in experiment [2].

Take `CNC(=O)c1nnc(Nc2cc(C(F)(F)F)ccn2)cc1Nc1ccccc1S(C)(=O)=O` [Example 35]: the results for the IC50 in experiment [1] and in experiment [2] were 40 nM and 210 nM, respectively.

As to `CCc1ccnc(Nc2cc(Nc3ccccc3S(C)(=O)=O)c(C(=O)NC)nn2)c1` [Example 36], the IC50 in experiment [1] was 30 nM; in experiment [2], 110 nM.

As for `CCOc1ccnc(Nc2cc(Nc3ccccc3S(C)(=O)=O)c(C(=O)NC)nn2)c1` [Example 37], the results for the IC50 in experiment [1] and in experiment [2] were 80 nM and 540 nM, respectively.

As to `CNC(=O)c1nnc(Nc2cc(OC)ccn2)cc1Nc1ccccc1S(C)(=O)=O` [Example 38], the IC50 amounted to 100 nM in experiment [1] and 170 nM in experiment [2].

Regarding `CNC(=O)c1nnc(Nc2ccnc(C)n2)cc1Nc1ccccc1S(C)(=O)=O` [Example 39], the IC50 came to 130 nM in experiment [1] and 340 nM in experiment [2].

On to `CNC(=O)c1nnc(Nc2cc(COC)nc(C)n2)cc1Nc1ccccc1S(C)(=O)=O` [Example 40], for which the IC50 in experiment [1] was determined as 120 nM; in experiment [2], 80 nM.

For `CNC(=O)c1nnc(Nc2cc(C)nc(COC)n2)cc1Nc1ccccc1S(C)(=O)=O` [Example 41], the IC50 in experiment [1] stood at 190 nM; in experiment [2] it was 160 nM.

For the compound `CNC(=O)c1nnc(Nc2cc(OC)ncn2)cc1Nc1ccccc1S(C)(=O)=O` [Example 42], the half-inhibitory concentration (IC50) in experiment [1] was 260 nM; in experiment [2] it was 150 nM.

`CNC(=O)c1nnc(Nc2cc(OC)nc(C)n2)cc1Nc1ccccc1S(C)(=O)=O` [Example 43]: the IC50 in experiment [1] came to 70 nM; in experiment [2], 460 nM.

On to `CNC(=O)c1nnc(Nc2cc(OC(C)C)nc(C)n2)cc1Nc1ccccc1S(C)(=O)=O` [Example 44], for which the IC50 in experiment [1] came to 100 nM; in experiment [2] it was 250 nM.

As to `CNC(=O)c1nnc(Nc2cc(OC(C)C)ncn2)cc1Nc1ccccc1S(C)(=O)=O` [Example 45], the IC50 in experiment [1] is 310 nM; in experiment [2], 420 nM.

Turning to `CCc1cc(Nc2cc(Nc3ccccc3S(C)(=O)=O)c(C(=O)NC)nn2)ncn1` [Example 46], the concentration for half-maximal inhibition (IC50) was 60 nM in experiment [1] and 200 nM in experiment [2].

Take `CCc1cc(Nc2cc(Nc3ccccc3S(C)(=O)=O)c(C(=O)NC)nn2)nc(C)n1` [Example 47]: the IC50 in experiment [1] was 20 nM; in experiment [2], 50 nM.

Turning to `CNC(=O)c1nnc(Nc2cc(C(C)O)ccn2)cc1Nc1ccccc1S(C)(=O)=O` (centres unmarked) [Example 48], the IC50 in experiment [1] amounted to 110 nM; in experiment [2] it was 330 nM.

In the case of `CNC(=O)c1nnc(Nc2ccc(CO)cn2)cc1Nc1ccccc1S(C)(=O)=O` [Example 49], the IC50 in experiment [1] was 220 nM; in experiment [2], 560 nM.

As for `CNC(=O)c1nnc(Nc2cc(C(C)(C)O)ccn2)cc1Nc1ccccc1S(C)(=O)=O` [Example 50], the IC50 in experiment [1] came out at 490 nM; in experiment [2], 310 nM.

In the case of `CNC(=O)c1nnc(NC(=O)C2CC2)cc1Nc1cccc(-c2ncn(C)n2)c1OC` [Example 52], the figures for the IC50 in experiment [1] and in experiment [2] were 9.21 nM and 10 nM, respectively.

Regarding `CNC(=O)c1nnc(NC(=O)C2CC2)cc1Nc1cccc(-c2ccn(C)n2)c1OC` [Example 54], the results for the IC50 in experiment [1] and in experiment [2] were 20 nM and 40 nM, respectively.

In the case of `CNC(=O)c1nnc(NC(=O)C2CC2)cc1Nc1cccc(-c2ncccn2)c1OC` [Example 70], the IC50 in experiment [2] came out at 20 nM.

As to `CNC(=O)c1nnc(NC(=O)C2CC2)cc1Nc1cccc(-c2ccccn2)c1OC` [Example 72], in experiment [2], the IC50 is 130 nM.

Consider `CNC(=O)c1nnc(NC(=O)C2CC2)cc1Nc1cccc(-c2cnccn2)c1OC` [Example 75], for which, in experiment [2], the IC50 was 70 nM.

`CNC(=O)c1nnc(NC(=O)C2CC2)cc1Nc1cccc(-c2cccnn2)c1OC` [Example 78]: the half-inhibitory concentration (IC50) in experiment [2] amounted to 320 nM.

As to `CNC(=O)c1nnc(NC(=O)C2CC2)cc1Nc1cccc(-c2nccc(C)n2)c1OC` [Example 82], in experiment [2], the IC50 is 110 nM.

As for `CNC(=O)c1nnc(NC(=O)C2CC2)cc1Nc1cccc(-c2ccncn2)c1OC` [Example 86], the IC50 in experiment [2] stood at 30 nM.

For `CNC(=O)c1nnc(Nc2cc(C)n(C)n2)cc1Nc1cccc(-c2ncc(C)s2)c1OC` [Example 104], the IC50 in experiment [1] was 40 nM.

For `CNC(=O)c1nnc(NC(=O)C2CC2)cc1Nc1cccc(-c2cnn(CC(F)F)c2)c1OC` [Example 187], in experiment [2], the IC50 is 50 nM.
